Where two headings read alike, the source gives them in different places.

For data set [1], the system named is pooled cryopreserved primary human hepatocytes. The conditions noted are these: single drug, 10 μM, 3 h.
Data set [2] concerns the target CYP2C19 pooled human supersomes (Homo sapiens, UniProt P33261). The experiment in a line: CYP2C19 supersome screening. Type of data set: in vitro ADME. Particulars: 10 μM; strongly metabolized = less than 80% of the drug remaining.
In data set [3] the test system is CYP1A2, 2C9, 2C19, 2D6, and 3A4 pooled human supersomes. Particulars: 10 μM, recorded from major to minor.
Data set [4] has as its target CYP2C9 pooled human supersomes (Homo sapiens, UniProt P11712). The experiment in a line: CYP2C9 supersome screening. Type of data set: in vitro ADME. Particulars: 10 μM; strongly metabolized = less than 80% of the drug remaining.

Chain of CYP2C19 pooled human supersomes (P33261 whole entry): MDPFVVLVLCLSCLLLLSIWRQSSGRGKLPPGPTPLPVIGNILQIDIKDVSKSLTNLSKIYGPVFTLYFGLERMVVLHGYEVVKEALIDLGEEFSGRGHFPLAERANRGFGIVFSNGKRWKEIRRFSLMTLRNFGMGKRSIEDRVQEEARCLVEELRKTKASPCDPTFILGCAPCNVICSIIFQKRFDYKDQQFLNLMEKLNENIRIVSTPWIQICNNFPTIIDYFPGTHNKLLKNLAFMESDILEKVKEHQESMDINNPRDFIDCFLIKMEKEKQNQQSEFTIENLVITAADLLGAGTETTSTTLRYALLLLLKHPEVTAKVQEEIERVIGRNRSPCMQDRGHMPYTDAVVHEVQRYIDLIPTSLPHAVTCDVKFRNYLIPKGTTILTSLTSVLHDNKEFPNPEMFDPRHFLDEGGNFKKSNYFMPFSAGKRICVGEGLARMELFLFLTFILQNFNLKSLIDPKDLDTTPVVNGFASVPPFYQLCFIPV
Chain of CYP2C9 pooled human supersomes (P11712 whole entry): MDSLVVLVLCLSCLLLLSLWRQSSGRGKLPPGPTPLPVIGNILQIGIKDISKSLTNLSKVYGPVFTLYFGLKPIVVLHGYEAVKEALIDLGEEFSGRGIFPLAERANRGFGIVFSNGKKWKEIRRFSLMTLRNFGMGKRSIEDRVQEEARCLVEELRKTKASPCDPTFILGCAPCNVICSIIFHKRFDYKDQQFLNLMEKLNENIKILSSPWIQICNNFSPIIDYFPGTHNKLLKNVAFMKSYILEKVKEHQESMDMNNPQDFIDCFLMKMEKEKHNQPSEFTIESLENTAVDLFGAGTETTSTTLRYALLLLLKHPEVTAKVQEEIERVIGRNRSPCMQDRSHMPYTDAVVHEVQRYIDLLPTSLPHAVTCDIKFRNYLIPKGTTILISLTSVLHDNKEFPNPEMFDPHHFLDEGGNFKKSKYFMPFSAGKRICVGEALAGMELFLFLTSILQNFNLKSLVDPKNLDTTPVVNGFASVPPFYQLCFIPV

With `Fc1ccc([C@@H]2CCNC[C@H]2COc2ccc3c(c2)OCO3)cc1` [Paroxetine, paroxetine], the “Potential metabolites observed in hepatocytes (alone) assays” value in data set [1] is recorded as “no potential metabolites observed”.
Turning to `CN[C@H]1CC[C@@H](c2ccc(Cl)c(Cl)c2)c2ccccc21` [Sertraline, sertraline], the “Drug remaining with CYP2C19 (strongly metabolized)” value in data set [2] was “less than 80%”. The “Metabolism Pathway: CYP Pathway (isoenzymes showing parent degradation)” value (“Metabolism Pathway: CYP Pathway” for short) in data set [3] is “CYP 2D6∗, 2C9∗, 2C19∗, 1A2, 3A4”; in data set [3] (listed as sertraline), “CYP2D6, 2C9, 2C19, 1A2, and 3A4”. In data set [4], the “Drug remaining with CYP2C9 (strongly metabolized)” value is “less than 80%”.
`CN(C)CCCC1(c2ccc(F)cc2)OCc2cc(C#N)ccc21` (centres unmarked) [Citalopram, citalopram]: the “Drug remaining with CYP2C19 (strongly metabolized)” value in data set [2] is given as “less than 80%”. In addition, the “Metabolism Pathway: CYP Pathway” value was “CYP 2D6∗, 2C19∗, 3A4, 2C9” in data set [3]; “CYP2D6, 2C19, 3A4, and 2C9” in data set [3] (listed as citalopram).
On to `COc1cc2ncnc(Nc3ccc(F)c(Cl)c3)c2cc1OCCCN1CCOCC1` [Gefitinib, gefitinib], for which the “Metabolism Pathway: CYP Pathway” value in data set [3] is “CYP 2D6 ∗, 3A4∗, 1A2, 2C9, 2C19”; in data set [3] (listed as gefitinib), “CYP2D6, 3A4, 1A2, 2C9, and 2C19”.
For `COCCCC/C(=N\OCCN)c1ccc(C(F)(F)F)cc1` [Fluvoxamine, fluvoxamine], the “Metabolism Pathway: CYP Pathway” value in data set [3] is “CYP 2D6∗, 2C9, 2C19”; in data set [3] (listed as fluvoxamine) it was “CYP2D6, 2C9, and 2C19”.
As for `COc1ccc(C(CN(C)C)C2(O)CCCCC2)cc1` (centres unmarked) [Venlafaxine, venlafaxine], the “Metabolism Pathway: CYP Pathway” value in data set [3] is “CYP 2D6∗, 2C19∗”; in data set [3] (listed as venlafaxine), “CYP2D6 and 2C19”.
